Results from ChEMBL document CHEMBL5113495, “Discovery of novel orexin receptor antagonists using a 1,3,5-trioxazatriquinane bearing multiple effective residues (TriMER) library” (Eur J Med Chem, 2022).
The source made the active and inactive calls. No cut-off for these calls is given here.

Columns and labels:
[1] = biological target: T1, Orexin/Hypocretin receptor type 1 (Homo sapiens, UniProt O43613); test: Antagonist activity at human OX1R expressed in CHO-K1 cells assessed as inhibition of orexin-A-induced increase in calcium mobilization preincubated for 15 mins followed orexin-A stimulation by Fura-2-AM dye based fluorescence assay; assay type: functional, cell-based
T1 sequence (O43613 whole entry): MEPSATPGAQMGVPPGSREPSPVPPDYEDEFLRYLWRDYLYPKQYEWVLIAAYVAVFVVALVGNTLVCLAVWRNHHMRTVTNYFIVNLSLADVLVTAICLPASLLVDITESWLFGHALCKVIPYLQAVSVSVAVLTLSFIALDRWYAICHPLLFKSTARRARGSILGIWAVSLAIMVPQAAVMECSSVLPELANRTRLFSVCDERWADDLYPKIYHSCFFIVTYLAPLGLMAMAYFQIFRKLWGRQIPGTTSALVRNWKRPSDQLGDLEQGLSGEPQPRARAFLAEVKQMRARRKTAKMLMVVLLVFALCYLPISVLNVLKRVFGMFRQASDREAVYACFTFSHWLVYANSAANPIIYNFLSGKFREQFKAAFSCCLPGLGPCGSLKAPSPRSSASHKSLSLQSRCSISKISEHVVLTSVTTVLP

[2] = Apparent permeability across apical to basolateral side in human Caco-2 cells at pH 7.4; assay type: ADME, cell-based; conditions: Caco-2, pH 7.4
[3] = Metabolic stability in pooled human liver microsomes assessed as intrinsic clearance […] preincubated for 5 mins followed by NADPH addition and measured upto 60 mins by HPLC-MS/MS analysis; assay type: ADME, Microsome; conditions: time < 65 min, read-out: CLH
[4] = Metabolic stability in pooled human liver microsomes assessed as half-life […] preincubated for 5 mins followed by NADPH addition and measured upto 60 mins by HPLC-MS/MS analysis; assay type: ADME, Microsome; conditions: time < 65 min
[5] = Drug concentration in C57BL/6J mouse brain at 10 mg/kg, ip measured after 0.5 hrs by LC-MS/MS analysis; assay type: ADME, organism-based; conditions: in vivo
[6] = tested on: Mus musculus; test: Effect on locomotor activity in ip dosed ICR mouse assessed as suppression of orexin-induced enhancement of locomotor activity pretreated with compound for 30 mins followed by orexin stimulation by infrared light beam-braking system locomotor recording system; assay type: functional, organism-based; conditions: dose 3-10 mg/kg, DDE = dose-dependent effect
[7] = Passive apparent permeability in MDCK cells; assay type: ADME, cell-based, Canis lupus familiaris; conditions: dog
[8] = biological target: T2, Orexin receptor type 2 (Homo sapiens, UniProt O43614); test: Antagonist activity at human OX2R expressed in CHO-K1 cells assessed as inhibition of orexin-A-induced increase in calcium mobilization preincubated for 15 mins followed orexin-A stimulation by Fura-2-AM dye based fluorescence assay; assay type: functional, cell-based
T2 sequence (O43614 whole entry): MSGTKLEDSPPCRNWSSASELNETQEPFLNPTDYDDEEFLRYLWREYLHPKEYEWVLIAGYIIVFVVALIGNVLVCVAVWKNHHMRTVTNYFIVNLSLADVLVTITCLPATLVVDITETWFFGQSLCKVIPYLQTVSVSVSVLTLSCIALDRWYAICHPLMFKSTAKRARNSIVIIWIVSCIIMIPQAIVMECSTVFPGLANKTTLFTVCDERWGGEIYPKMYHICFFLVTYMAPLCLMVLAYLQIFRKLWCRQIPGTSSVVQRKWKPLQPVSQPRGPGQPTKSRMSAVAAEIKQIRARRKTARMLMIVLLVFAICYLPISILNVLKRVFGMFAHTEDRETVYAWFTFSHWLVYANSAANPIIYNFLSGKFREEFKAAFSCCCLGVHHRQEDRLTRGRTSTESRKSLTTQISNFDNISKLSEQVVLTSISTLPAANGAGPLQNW

[9] = tested on: Mus musculus; test: Sleep inducing activity in C57BL/6J mouse assessed as decrease in total time of wakefulness during dark phase at 10 mg/kg, ip measured at 12 to 18 hrs by EEG/EMG analysis; assay type: functional, organism-based; conditions: time 12-18 hrs
[10] = tested on: Mus musculus; test: Sleep inducing activity in C57BL/6J mouse assessed as increase in total time of NREM sleep during dark phase at 10 mg/kg, ip measured at 12 to 18 hrs by EEG/EMG analysis; assay type: functional, organism-based; conditions: time 12-18 hrs
[11] = Apparent permeability across apical to basolateral side in human Caco-2 cells at pH 7.4 in the presence of 1% BSA; assay type: ADME, cell-based; conditions: Caco-2, pH 7.4

Structure (SMILES) | Ki [1] [nM] | Ki [8] [nM] | IC50 [8] [µM] | further results
COc1ccc(C(=O)Nc2cccc([C@@]3(C)O[C@H]4CO[C@@H]5N4[C@H]3O[C@]5(C)c3cccc(NC(=O)c4ccc(OC)cc4)c3)c2)cc1 | 1.87 | – | – | Papp A→B [2]: 11.9 ×10⁻⁶ cm/s; microsomal CLint [3]: 183 µL/min/mg; half-life [4]: 39 min; Ct [5]: 33.9 pmol/g; Activity [6]: Dde; Papp [7]: > 10 ×10⁻⁶ cm/s
CN(C)c1cccc([C@]2(C)O[C@H]3CO[C@@H]4N3[C@H]2O[C@@]4(C)c2cccc(N(C)C)c2)c1 | – | 655 | – | IC50 [1]: > 10 µM
C[C@]1(c2cccc(NC(=O)c3ccccn3)c2)O[C@H]2CO[C@@H]3N2[C@H]1O[C@]3(C)c1cccc(NC(=O)c2ccccn2)c1 | 18.3 | – | > 10 | –
COc1cccc(C(=O)Nc2cccc([C@]3(C)O[C@@H]4N5[C@H](CO[C@H]53)O[C@@]4(C)c3cccc(NC(=O)c4ccccc4)c3)c2)c1 | 7.66 | 5.38 | – | –
COc1ccc(C(=O)Nc2cccc([C@]3(C)O[C@@H]4CO[C@H]5N4[C@@H]3O[C@@]5(C)c3cccc(NC(=O)c4ccc(OC)cc4)c3)c2)cc1 | 2.17 | – | – | –
COc1ccccc1C(=O)Nc1cccc([C@]2(C)O[C@@H]3N4[C@H](CO[C@H]42)O[C@@]3(C)c2cccc(NC(=O)c3ccccc3)c2)c1 | 18 | 56 | – | –
CC(C)(C)OC(=O)Nc1cccc([C@]2(C)O[C@H]3CO[C@@H]4N3[C@H]2O[C@@]4(C)c2cccc(NC(=O)OC(C)(C)C)c2)c1 | 34.2 | 180 | – | –
CN(C)c1ccccc1C(=O)Nc1cccc([C@@]2(C)O[C@H]3CO[C@@H]4N3[C@H]2O[C@]4(C)c2cccc(NC(=O)c3ccccc3N(C)C)c2)c1 | 634 | – | > 10 | –
C[C@@]1(c2cccc(NC(=O)c3cccnc3)c2)O[C@H]2CO[C@@H]3N2[C@H]1O[C@@]3(C)c1cccc(NC(=O)c2cccnc2)c1 | 691 | 261 | – | –
CN(C)c1ccc(C(=O)Nc2cccc([C@@]3(C)O[C@H]4CO[C@@H]5N4[C@H]3O[C@]5(C)c3cccc(NC(=O)c4ccc(N(C)C)cc4)c3)c2)cc1 | 3.88 | – | > 10 | –
C[C@]1(c2cccc(NC(=O)c3cccnc3)c2)O[C@H]2CO[C@@H]3N2[C@H]1O[C@]3(C)c1cccc(NC(=O)c2cccnc2)c1 | 52 | – | > 10 | –
CN(C)c1ccc(C(=O)Nc2cccc([C@]3(C)O[C@H]4CO[C@@H]5N4[C@H]3O[C@@]5(C)c3cccc(NC(=O)c4ccc(N(C)C)cc4)c3)c2)cc1 | – | – | > 10 | IC50 [1]: > 10 µM
C[C@@]1(c2cccc(NC(=O)c3ccccc3)c2)O[C@H]2CO[C@@H]3N2[C@H]1O[C@@]3(C)c1cccc(NC(=O)c2ccccc2)c1 | 23.4 | 15.1 | – | –
C[C@@]1(c2cccc(NC(=O)c3ccncc3)c2)O[C@H]2CO[C@@H]3N2[C@H]1O[C@@]3(C)c1cccc(NC(=O)c2ccncc2)c1 | – | 179 | – | IC50 [1]: > 10 µM
COc1ccc(C(=O)Nc2cccc([C@]3(C)O[C@H]4CO[C@@H]5N4[C@H]3O[C@@]5(C)c3cccc(NC(=O)c4ccc(OC)cc4)c3)c2)cc1 | 3.99 | – | – | Activity [9]: Active; Activity [10]: Active; Papp A→B [11]: 1.4 ×10⁻⁶ cm/s; microsomal CLint [3]: 184 µL/min/mg; half-life [4]: 38 min; Ct [5]: 54.7 pmol/g
C[C@]1(c2cccc(NC(=O)c3ccncc3)c2)O[C@H]2CO[C@@H]3N2[C@H]1O[C@]3(C)c1cccc(NC(=O)c2ccncc2)c1 | 104 | – | > 10 | –
CN(C)c1ccccc1C(=O)Nc1cccc([C@]2(C)O[C@H]3CO[C@@H]4N3[C@H]2O[C@@]4(C)c2cccc(NC(=O)c3ccccc3N(C)C)c2)c1 | – | – | > 10 | IC50 [1]: > 10 µM
COc1ccc(C(=O)Nc2cccc(C3(C)OC4COC5N4C3OC5(C)c3cccc(NC(=O)c4ccc(OC)cc4)c3)c2)cc1 (racemic) | 4.93 | – | – | –
C[C@]1(c2cccc(NC(=O)c3ccccc3)c2)O[C@H]2CO[C@@H]3N2[C@H]1O[C@]3(C)c1cccc(NC(=O)c2ccccc2)c1 | 25.4 | – | > 10 | –
COc1cccc(C(=O)Nc2cccc([C@@]3(C)O[C@H]4CO[C@@H]5N4[C@H]3O[C@]5(C)c3cccc(NC(=O)c4cccc(OC)c4)c3)c2)c1 | 2.86 | – | > 10 | –
COc1ccc(C(=O)Nc2cccc(C3(C)OC4COC5N4C3OC5(C)c3cccc(NC(=O)c4ccc(OC)cc4)c3)c2)cc1 (mixture of isomers) | 11.7 | – | – | –
COc1cccc(C(=O)Nc2cccc([C@@]3(C)O[C@H]4CO[C@@H]5N4[C@H]3O[C@]5(C)c3cccc(NC(=O)c4ccccc4OC)c3)c2)c1 | 32.8 | – | – | –
C[C@@]1(c2cccc(NS(=O)(=O)c3ccccc3)c2)O[C@H]2CO[C@@H]3N2[C@H]1O[C@]3(C)c1ccc(NS(=O)(=O)c2ccccc2)cc1 | – | 222 | – | IC50 [1]: > 10 µM
CN(C)c1cccc(C(=O)Nc2cccc([C@@]3(C)O[C@H]4CO[C@@H]5N4[C@H]3O[C@]5(C)c3cccc(NC(=O)c4cccc(N(C)C)c4)c3)c2)c1 | 7.85 | – | > 10 | –
C[C@@]1(c2cccc(NC(=O)c3ccccn3)c2)O[C@H]2CO[C@@H]3N2[C@H]1O[C@@]3(C)c1cccc(NC(=O)c2ccccn2)c1 | 14.9 | 69.6 | – | –
CN(C)c1cccc(C(=O)Nc2cccc([C@]3(C)O[C@H]4CO[C@@H]5N4[C@H]3O[C@@]5(C)c3cccc(NC(=O)c4cccc(N(C)C)c4)c3)c2)c1 | – | – | > 10 | IC50 [1]: > 10 µM
COc1ccc(C(=O)Nc2cccc([C@@]3(C)O[C@@H]4CO[C@H]5N4[C@@H]3O[C@]5(C)c3cccc(NC(=O)c4ccc(OC)cc4)c3)c2)cc1 | 110 | – | – | –
